# Test results as given in ChEMBL document CHEMBL3638904, “Pyridine-2-derivatives as smoothened receptor modulators” (2015).
# Molecular target: Protein smoothened (Homo sapiens, UniProt Q99835)
# Test: Radioligand Competition Binding Assay: For the binding competition assay, 100 μL of Assay Buffer was added to all the wells of a 96 well GF/B filter plate (Millipore MultiScreen-HTS-FB cat# MSFBN6B50) for 10 minutes to pre-wet the filter prior to evacuation of the buffer (8 inches Hg for 8 seconds). To the pre-wet wells is added: 20 μL of Assay Buffer, 10 μL diluted test agent, 20 μL of a tritiated Smo antagonist (15 nM stock solution), and 50 μL of membrane preparation (40 μg total protein per well). The plates are sealed and mixed at room temperature for 5 min, incubated at room temperature for 2 hours, then washed 5 times with 100 μL/each of wash buffer and vacuum dried for 8 seconds at 8 inches Hg. The plate is then dried for one hour in a 60° C. oven prior to the addition of 45 μL of Microscint 20 (Packard, #6013621) to each well and incubation at RT for 30 minutes to 1 hour. The plate is counted in a TopCount scintillation counter (Perkin Elmer).
# Sequence of Protein smoothened (Q99835 whole entry): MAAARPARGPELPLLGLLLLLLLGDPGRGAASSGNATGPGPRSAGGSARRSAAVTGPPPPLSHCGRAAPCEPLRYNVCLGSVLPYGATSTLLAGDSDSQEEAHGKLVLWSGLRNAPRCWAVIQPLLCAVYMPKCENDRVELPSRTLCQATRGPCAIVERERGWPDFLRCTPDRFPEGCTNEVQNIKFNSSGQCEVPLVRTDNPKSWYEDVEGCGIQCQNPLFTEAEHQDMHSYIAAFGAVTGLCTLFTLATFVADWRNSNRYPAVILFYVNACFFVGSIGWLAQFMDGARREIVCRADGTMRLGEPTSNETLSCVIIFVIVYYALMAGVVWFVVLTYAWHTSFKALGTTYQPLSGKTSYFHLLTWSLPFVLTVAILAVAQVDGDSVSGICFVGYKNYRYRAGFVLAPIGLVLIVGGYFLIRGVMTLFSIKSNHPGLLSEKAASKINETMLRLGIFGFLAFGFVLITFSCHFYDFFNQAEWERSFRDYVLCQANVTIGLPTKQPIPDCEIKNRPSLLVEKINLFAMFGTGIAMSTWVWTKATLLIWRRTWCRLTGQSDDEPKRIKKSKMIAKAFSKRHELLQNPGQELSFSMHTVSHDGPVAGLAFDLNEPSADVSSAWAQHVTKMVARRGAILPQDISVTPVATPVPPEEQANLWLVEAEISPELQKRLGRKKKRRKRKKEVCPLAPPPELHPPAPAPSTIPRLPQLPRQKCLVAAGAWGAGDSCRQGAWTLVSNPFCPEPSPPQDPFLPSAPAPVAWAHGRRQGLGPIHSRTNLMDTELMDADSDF
row,SMILES,IC50 [nM]
1,Cc1cccnc1-c1cc(N2[C@@H]3CC[C@H]2CN(C(=O)CC(C)(C)O)C3)ncc1Cl,92.2
2,O=S(=O)(NC1CCN(c2ccc(Cl)c(-c3ccccn3)n2)CC1)C1CC1,16.5
3,Cc1ccc(-c2nc(N3CCN(C(=O)CCS(C)(=O)=O)CC3)ccc2Cl)nc1,22.5

# More lines, in order of falling IC50, values ahead:
row,IC50 [nM],SMILES
1,110,O=C(CCO)NC1CCN(c2ccc(Cl)c(-c3ccccn3)n2)CC1
2,40.3,Cc1cccnc1-c1cc(N2CCN(c3ncc(Br)cn3)CC2)ncc1Cl
3,7.11,Cc1cc(F)cnc1-c1cc(N2CCN(C(=O)CCS(C)(=O)=O)CC2)ncc1Cl
